From patent US10072006B2 (MUTABILIS, priority 2015, dated 2018)
Counter-ions that a name gives are not always drawn. Like-named read-outs stand apart in the source and are kept apart here.

What was measured:
[1] = test system: E. cloacae P99 (Derepressed ampC); test: MIC of compounds and synergy with ceftazidime (broth microdilution); assay type: cell-based; conditions: strain P99 (E. cloacae); for MIC: Enterobacter cloacae, 18 h, read-out: MIC compounds of the invention alone; for MIC, combination of CAZ and compounds of the invention: MIC of ceftazidime with compound fixed at 4 μg/mL
Method: (§1) Briefly, compounds alone according to the invention were prepared in DMSO and spotted (2 μL each) on sterile polystyrene plates (Corning, 3788). […] Microplates were incubated for 16-20 h at 35° C. in ambient air. The MIC of the compounds was defined as the lowest concentration of said compounds that prevented bacterial growth as read by visual inspection.

[2] = test system: K. pneumoniae BAA-1898 (TEM-1, SHV-11, SHV-12, KPC-2); test: as above; assay type: cell-based; conditions: for MIC: Klebsiella pneumoniae; for MIC, combination of CAZ and compounds of the invention: MIC of ceftazidime with compound fixed at 4 μg/mL
Method: as §1

[3] = test system: E. coli 131119 (TEM-1, OXA-48); test: as above; assay type: cell-based; conditions: for MIC: Escherichia coli
Method: as §1

[4] = test system: P. aeruginosa CIP105250 (OXA-15); test: as above; assay type: cell-based; conditions: for MIC, combination of CAZ and compounds of the invention: MIC of ceftazidime with compound fixed at 4 μg/mL; for MIC: Pseudomonas aeruginosa
Method: as §1

E. coli RGN238 (OXA-1) = test: as above; assay type: cell-based; conditions: for MIC: Escherichia coli
Method: as §1

[5] = test system: K. pneumoniae 6299 (TEM-1, SHV-11, OXA-163); test: as above; assay type: cell-based; conditions: for MIC: Klebsiella pneumoniae; for MIC, combination of CAZ and compounds of the invention: MIC of ceftazidime with compound fixed at 4 μg/mL
Method: as §1

[6] = test system: P. aeruginosa CIP107051 (TEM-24); test: as above; assay type: cell-based; conditions: for MIC, combination of CAZ and compounds of the invention: MIC of ceftazidime with compound fixed at 4 μg/mL; for MIC: Pseudomonas aeruginosa
Method: as §1

[7] = test system: E. coli 190317 (TEM-1, SHV-12, CTX-M-15, OXA-1); test: microbe, parasite or virus in culture; assay type: cell-based
Method: as §1

[8] = test system: P. aeruginosa UFR90 (Derepressed ampC, OprD-); test: MIC of compounds and synergy with ceftazidime (broth microdilution); assay type: cell-based; conditions: Pseudomonas aeruginosa, read-out: MIC of CAZ
Method: as §1

[9] = test system: P. aeruginosa UFR35 (OXA-23); test: as above; assay type: cell-based; conditions: for MIC: Pseudomonas aeruginosa
Method: as §1

[10] = test system: K. pneumoniae UFR77 (CMY-2); test: as above; assay type: cell-based; conditions: for MIC: Klebsiella pneumoniae
Method: as §1

[11] = test system: P. aeruginosa UFR92 (Derepressed ampC, OprD-); test: as above; assay type: cell-based; conditions: Pseudomonas aeruginosa, read-out: MIC of CAZ
Method: as §1

[12] = test system: E. coli UFR74 (SHV-1, DHA-1); test: as above; assay type: cell-based; conditions: for MIC: Escherichia coli
Method: as §1

[13] = test system: P. aeruginosa UFR48 (VIM-2); test: as above; assay type: cell-based; conditions: for MIC: Pseudomonas aeruginosa
Method: as §1

TEM-1 = biological target: T1, TEM-1 (Escherichia coli, UniProt P62593); test: β-lactamase inhibitory activity, determination of IC50 (nitrocefin hydrolysis); assay type: biochemical; conditions: class (A), 30 min pre-incubation
T1 construct: made in house; host or cells: E. coli

[14] = test system: E. coli UFR52 (TEM-1, SHV-12, IMP-8); test: MIC of compounds and synergy with ceftazidime (broth microdilution); assay type: cell-based; conditions: strain UFR52 (E. coli)
Method: as §1

[15] = test system: P. aeruginosa UFR47 (VIM-1); test: as above; assay type: cell-based; conditions: strain UFR47 (P. aeruginosa)
Method: as §1

[16] = test system: E. coli UFR32 (TEM-1, VEB-1, OXA-10); test: as above; assay type: cell-based; conditions: strain UFR32 (E. coli)
Method: as §1

[17] = test system: E. coli UFR18 (CTX-M-15, OXA-204); test: as above; assay type: cell-based; conditions: strain UFR18 (E. coli)
Method: as §1

[18] = test system: P. aeruginosa UFR59 (IMP-29); test: as above; assay type: cell-based; conditions: strain UFR59 (P. aeruginosa)
Method: as §1

[19] = test system: K. pneumoniae UFR24 (TEM-1, SHV-2, SHV-11, OXA-1, OXA-48, OXA-47); test: as above; assay type: cell-based; conditions: strain UFR24 (K. pneumoniae)
Method: as §1

[20] = test system: C. murliniae 210102 (VIM-4); test: as above; assay type: cell-based; conditions: strain 210102 (C. murliniae)
Method: as §1

[21] = test system: E. coli UFR61O (TEM-1, KPC-2); test: as above; assay type: cell-based
Method: as §1

[22] = test system: E. cloacae UFR38 (CTX-M-15, NDM-1); test: as above; assay type: cell-based; conditions: strain UFR38 (E. cloacae)
Method: as §1

[23] = BAA1898, strain BAA-1898 (K. pneumoniae), read-out: MIC compounds of the invention alone
[24] = strain BAA-1898 (K. pneumoniae)
[25] = 18 h, strain 131119 (E. coli), read-out: MIC compounds of the invention alone
[26] = strain CIP105250 (P. aeruginosa)
[27] = 18 h, strain CIP105250 (P. aeruginosa), read-out: MIC compounds of the invention alone
[28] = 18 h, strain RGN238 (E. coli), read-out: MIC compounds of the invention alone
[29] = 18 h, strain 6299 (K. pneumoniae), read-out: MIC compounds of the invention alone
[30] = strain CIP107051 (P. aeruginosa)
[31] = 18 h, strain CIP107051 (P. aeruginosa), read-out: MIC compounds of the invention alone
[32] = Escherichia coli, 18 h, read-out: MIC compounds of the invention alone
[33] = MIC of ceftazidime with compound fixed at 4 μg/mL
[34] = Pseudomonas aeruginosa, 18 h, read-out: MIC compounds of the invention alone

T1 sequence (P62593 24-286 limits assumed): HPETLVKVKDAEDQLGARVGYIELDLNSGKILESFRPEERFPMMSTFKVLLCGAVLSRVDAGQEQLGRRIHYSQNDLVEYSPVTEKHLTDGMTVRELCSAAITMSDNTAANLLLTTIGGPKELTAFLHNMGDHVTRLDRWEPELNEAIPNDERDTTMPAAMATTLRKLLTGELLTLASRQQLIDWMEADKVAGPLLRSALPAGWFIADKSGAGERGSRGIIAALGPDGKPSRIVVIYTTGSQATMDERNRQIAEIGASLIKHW

In the case of N=C(N)NC[C@@H]1C(c2nccs2)=C[C@@H]2CN1C(=O)N2OS(=O)(=O)O [Example 7, [(2S,5R)-2-(guanidinomethyl)-7-oxo-3-thiazol-2-yl-1,6-diazabicyclo[3.2.1]oct-3-en-6-yl] hydrogen sulfate], the MIC [1] is reported as 0.031 µg/mL, the “MIC, combination of CAZ and compounds of the invention” value (from here on “MIC, combination”) [1] is reported as less than 0.125 µg/mL and the MIC [2, 23] is reported as greater than 32 µg/mL. The “MIC, combination” value [2, 24] was no more than 0.125 µg/mL, the MIC [3, 25] was 0.031 µg/mL and the “MIC, combination” value [4, 26] was 32 µg/mL. The MIC [4, 27] was 32 µg/mL, the MIC (E. coli RGN238 (OXA-1); [28]) was 16 µg/mL and the MIC [5, 29] was greater than 32 µg/mL. The “MIC, combination” value ([5]; strain 6299 (K. pneumoniae)) was 2 µg/mL, the “MIC, combination” value [6, 30] was 1 µg/mL and the MIC [6, 31] was 8 µg/mL. The MIC [7, 32] was 0.063 µg/mL.
For CC(C)(O/N=C(\C(=O)N[C@@H]1C(=O)N2C(C(=O)[O-])=C(C[n+]3ccccc3)CS[C@H]12)c1csc(N)n1)C(=O)O [CAZ, ceftazidime, reference compound], the MIC ([2]; BAA1898, read-out: MIC of CAZ) was 256 µg/mL, the MIC ([3]; read-out: MIC of CAZ) was 0.5 µg/mL and the MIC [8] was 64 µg/mL. The MIC ([9]; read-out: MIC of CAZ) was 2 µg/mL, the MIC ([4]; CIP105250, read-out: MIC of CAZ) was 256 µg/mL and the MIC ([10]; read-out: MIC of CAZ) was 64 µg/mL. It also gave an MIC [11] of 32 µg/mL, an MIC ([12]; read-out: MIC of CAZ) of 64 µg/mL and an MIC (E. coli RGN238 (OXA-1); read-out: MIC of CAZ) of 0.5 µg/mL. For the same compound, the MIC ([5]; read-out: MIC of CAZ) was 256 µg/mL, the MIC ([13]; read-out: MIC of CAZ) was 256 µg/mL and the MIC ([6]; CIP107051, read-out: MIC of CAZ) was 256 µg/mL.
With COC[C@H]1C=C(c2cnco2)[C@@H]2CN1C(=O)N2OS(=O)(=O)[O-].[Na+] (relative stereo) [Example 4] the “MIC, combination” value [1] was 64 µg/mL, the “MIC compounds of the invention alone” value [1] was greater than 32 µg/mL and the “MIC, combination” value [2, 24] was 64 µg/mL. For the same compound, the “MIC compounds of the invention alone” value [2, 24] was greater than 32 µg/mL, the “MIC compounds of the invention alone” value ([3]; strain 131119 (E. coli)) was greater than 32 µg/mL and the “MIC, combination” value [4, 26] was 128 µg/mL. For the same compound, the “MIC compounds of the invention alone” value [4, 26] was greater than 32 µg/mL, the “MIC compounds of the invention alone” value (E. coli RGN238 (OXA-1); strain RGN238 (E. coli)) was greater than 32 µg/mL and the “MIC, combination” value ([5]; strain 6299 (K. pneumoniae)) was 128 µg/mL. For the same compound, the “MIC compounds of the invention alone” value ([5]; strain 6299 (K. pneumoniae)) was greater than 32 µg/mL, the “MIC, combination” value [6, 30] was 64 µg/mL and the “MIC compounds of the invention alone” value [6, 30] was greater than 32 µg/mL. The “MIC, combination” value ([7]; MIC of ceftazidime with compound fixed at 4 μg/mL, strain 190317 (E. coli)) was 4 µg/mL and the “MIC compounds of the invention alone” value ([7]; strain 190317 (E. coli)) was greater than 32 µg/mL.
With NC[C@@H]1C=C(c2cnco2)[C@@H]2CN1C(=O)N2OS(=O)(=O)O (relative stereo) [Example 1, Sodium and 2,2,2-trifluoroacetate [trans-2-(azaniumylmethyl)-4-oxazol-5-yl-7-oxo-1,6-diazabicyclo[3.2.1]oct-3-en-6-yl] sulfate] the IC50 (TEM-1) was 3.2 nM, the MIC [1] was 0.031 µg/mL and the “MIC, combination” value [1] was less than 0.25 µg/mL. For the same compound, the MIC [2, 23] was greater than 32 µg/mL, the “MIC, combination” value [2, 24] was 0.5 µg/mL and the MIC [3, 25] was 32 µg/mL. For the same compound, the “MIC, combination” value ([3]; MIC of ceftazidime with compound fixed at 4 μg/mL, strain 131119 (E. coli)) was less than 0.25 µg/mL, the MIC [14, 32] was 2 µg/mL and the “MIC, combination” value [14, 33] was less than 0.25 µg/mL. For the same compound, the “MIC, combination” value [15, 33] was less than 0.25 µg/mL, the MIC [15, 34] was 2 µg/mL and the MIC [16, 32] was 0.031 µg/mL. The “MIC, combination” value [16, 33] was less than 0.25 µg/mL, the “MIC, combination” value ([9]; MIC of ceftazidime with compound fixed at 4 μg/mL, strain UFR35 (P. aeruginosa)) was less than 0.25 µg/mL and the MIC ([9]; 18 h, strain UFR35 (P. aeruginosa), read-out: MIC compounds of the invention alone) was 1 µg/mL. The “MIC, combination” value [4, 26] was no more than 0.125 µg/mL, the MIC [4, 27] was greater than 32 µg/mL and the MIC ([10]; 18 h, strain UFR77 (K. pneumoniae), read-out: MIC compounds of the invention alone) was greater than 32 µg/mL. For the same compound, the “MIC, combination” value ([10]; MIC of ceftazidime with compound fixed at 4 μg/mL, strain UFR77 (K. pneumoniae)) was 2 µg/mL, the MIC ([12]; 18 h, strain UFR74 (E. coli), read-out: MIC compounds of the invention alone) was greater than 32 µg/mL and the “MIC, combination” value ([12]; MIC of ceftazidime with compound fixed at 4 μg/mL, strain UFR74 (E. coli)) was 4 µg/mL. The MIC (E. coli RGN238 (OXA-1); [28]) was greater than 32 µg/mL, the “MIC, combination” value (E. coli RGN238 (OXA-1); MIC of ceftazidime with compound fixed at 4 μg/mL, strain RGN238 (E. coli)) was no more than 0.125 µg/mL and the MIC [17, 32] was 0.031 µg/mL. For the same compound, the “MIC, combination” value [17, 33] was less than 0.25 µg/mL, the “MIC, combination” value [18, 33] was less than 0.25 µg/mL and the MIC [18, 34] was 8 µg/mL. The MIC [5, 29] was greater than 32 µg/mL, the “MIC, combination” value ([5]; strain 6299 (K. pneumoniae)) was 0.5 µg/mL and the MIC ([19]; Klebsiella pneumoniae, 18 h, read-out: MIC compounds of the invention alone) was greater than 32 µg/mL. The “MIC, combination” value [19, 33] was 4 µg/mL, the “MIC, combination” value ([13]; MIC of ceftazidime with compound fixed at 4 μg/mL, strain UFR48 (P. aeruginosa)) was less than 0.25 µg/mL and the MIC ([13]; 18 h, strain UFR48 (P. aeruginosa), read-out: MIC compounds of the invention alone) was 4 µg/mL. The MIC ([20]; 18 h, read-out: MIC compounds of the invention alone) was greater than 32 µg/mL, the “MIC, combination” value [20, 33] was 0.5 µg/mL and the MIC ([21]; Escherichia coli, strain UFR61O (E. coli), read-out: MIC compounds of the invention alone) was 0.031 µg/mL. The “MIC, combination” value ([21]; MIC of ceftazidime with compound fixed at 4 μg/mL, strain UFR610 (E. coli)) was less than 0.25 µg/mL, the MIC ([22]; Enterobacter cloacae, 18 h, read-out: MIC compounds of the invention alone) was no more than 0.016 µg/mL and the “MIC, combination” value [22, 33] was less than 0.25 µg/mL. For the same compound, the “MIC, combination” value [6, 30] was less than 0.25 µg/mL and the MIC [6, 31] was 2 µg/mL.
